According to publication PMC4954775 (Nature chemical biology, 2013):

Molecular target: T1, α-L-iduronidase (IDUA) (Homo sapiens, UniProt P35475)
T1 sequence (P35475 28-653): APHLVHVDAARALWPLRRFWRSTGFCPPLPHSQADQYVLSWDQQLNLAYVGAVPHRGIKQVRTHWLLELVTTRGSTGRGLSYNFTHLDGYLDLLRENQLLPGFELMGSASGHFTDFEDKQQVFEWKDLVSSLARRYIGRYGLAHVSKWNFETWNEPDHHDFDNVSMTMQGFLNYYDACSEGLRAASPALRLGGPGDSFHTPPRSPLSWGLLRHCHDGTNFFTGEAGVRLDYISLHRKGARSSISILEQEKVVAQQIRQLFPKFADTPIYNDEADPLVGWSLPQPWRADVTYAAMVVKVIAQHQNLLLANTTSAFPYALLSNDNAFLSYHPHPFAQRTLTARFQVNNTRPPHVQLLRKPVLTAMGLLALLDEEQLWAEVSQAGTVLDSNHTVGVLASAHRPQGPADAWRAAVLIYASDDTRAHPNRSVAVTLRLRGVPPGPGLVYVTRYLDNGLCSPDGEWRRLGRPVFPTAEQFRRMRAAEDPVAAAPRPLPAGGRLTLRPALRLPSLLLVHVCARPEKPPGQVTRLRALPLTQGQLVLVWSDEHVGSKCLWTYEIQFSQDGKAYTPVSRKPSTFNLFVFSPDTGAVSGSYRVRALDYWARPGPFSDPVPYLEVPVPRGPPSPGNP
Assay: X-ray crystal structure
Format: biochemical

IC50: ~3 mM
SMILES: O=C(O)[C@@H]1NC[C@H](O)[C@@H](O)[C@@H]1O [IdoADNJ, [2R, 3R, 4R, 5S]-2-carboxy-3,4,5-trihydroxy-piperidine]
